From ChEMBL document CHEMBL3272282, “Adrenergic agents. 6. Synthesis and potential beta-adrenergic agonist activity of some meta-substituted p-hydroxyphenylethanolamines related to salbutamol” (J Med Chem, 1977)

How the values were obtained:
[1] = Separation ratio of ED25 at beta-adrenoceptor in guinea pig atria to ED50 for beta-adrenoceptor in guinea pig trachea; parameters: species or system Cavia porcellus
[2] = species on record: Cavia porcellus; assay: Intrinsic activity at beta-adrenoceptor in guinea pig trachea assessed as relaxation of spontaneously contracted tracheal smooth muscle relative to papaverine; assay type: tissue-based
[3] = Agonist activity at beta-adrenoceptor in guinea pig atria assessed as cardiac stimulant activity by measuring change in rate of contraction of right atrial muscle; assay type: tissue-based, Cavia porcellus, Cardiac atrium
[4] = species on record: Cavia porcellus; assay: Agonist activity at beta-adrenoceptor in guinea pig trachea assessed as relaxation of spontaneously contracted tracheal smooth muscle; assay type: tissue-based
[5] = Agonist activity at beta-adrenoceptor in guinea pig atria assessed as cardiac stimulant activity by measuring change in rate of contraction of right atrial muscle at 92 uM; assay type: tissue-based, Cavia porcellus, Cardiac atrium
[6] = Agonist activity at beta-adrenoceptor in guinea pig atria assessed as cardiac stimulant activity by measuring change in rate of contraction of right atrial muscle at 0.11 mM; assay type: tissue-based, Cavia porcellus, Cardiac atrium; conditions: 110 µM
[7] = Agonist activity at beta-adrenoceptor in guinea pig atria assessed as cardiac stimulant activity by measuring change in rate of contraction of right atrial muscle at 14 uM; assay type: tissue-based, Cavia porcellus, Cardiac atrium
[8] = species on record: Cavia porcellus; assay: Agonist activity at beta-adrenoceptor in guinea pig trachea assessed as relaxation of spontaneously contracted tracheal smooth muscle at 12 uM; assay type: tissue-based; parameters: scale not given: the % may be the effect or the level left
[9] = Intrinsic activity at beta-adrenoceptor in guinea pig atria assessed as cardiac stimulant activity by measuring change in rate of contraction of right atrial muscle relative to isoproterenol; assay type: ADME, tissue-based, Cavia porcellus, Cardiac atrium
[10] = Agonist activity at beta-adrenoceptor in guinea pig atria assessed as cardiac stimulant activity by measuring change in rate of contraction of right atrial muscle at 56 uM; assay type: tissue-based, Cavia porcellus, Cardiac atrium
[11] = species on record: Cavia porcellus; assay: Agonist activity at beta-adrenoceptor in guinea pig trachea assessed as relaxation of spontaneously contracted tracheal smooth muscle at 11 uM; assay type: tissue-based; parameters: scale not given: the % may be the effect or the level left
[12] = Agonist activity at beta-adrenoceptor in guinea pig atria assessed as cardiac stimulant activity by measuring change in rate of contraction of right atrial muscle at 0.12 mM; assay type: tissue-based, Cavia porcellus, Cardiac atrium; conditions: 120 µM

Structure (SMILES)	Ratio [1]	Ratio [2]	ED25 [3]	ED50 [4]	Activity [5]	Activity [6]	Activity [7]	Activity [8]	Ratio [9]	Activity [10]	Activity [11]	Activity [12]
CC(C)(C)NCC(O)c1ccc(O)c(C(O)CNC(C)(C)C)c1 (configuration not stated)	>6	0.9	9.2 ×10⁻⁵ M	1.5 ×10⁻⁵ M	14%	–	–	–	–	–	–	–
COC(CO)c1cc(C(O)CNC(C)(C)C)ccc1O (configuration not stated)	>320	0.7	–	3.4 ×10⁻⁷ M	–	0%	–	–	–	–	–	–
CC(C)(C)NCC(O)c1ccc(O)c(C(O)CS(C)(=O)=O)c1 (configuration not stated)	–	–	1.4 ×10⁻⁵ M	1.2 ×10⁻⁵ M	–	–	0%	34%	–	–	–	–
CC(O)c1cc(C(O)CNC(C)(C)C)ccc1O (configuration not stated)	289	1	5.2 µM	1.8 ×10⁻⁸ M	–	–	–	–	0.3	–	–	–
CC(C)NCC(O)c1ccc(O)c(O)c1 (configuration not stated) [ISOPROTERENOL]	–	1	–	7.1 nM	–	–	–	–	–	–	–	–
CC(C)(C)NCC(O)c1ccc(O)c(C(C)(C)O)c1 (configuration not stated)	–	–	–	1.1 ×10⁻⁵ M	–	–	–	–	–	8%	30%	–
COCC(O)c1cc(C(O)CNC(C)(C)C)ccc1O (configuration not stated)	236	0.9	1.2 ×10⁻⁴ M	5.3 ×10⁻⁷ M	–	–	–	–	–	–	–	23%
CC(C)(C)NCC(O)c1ccc(O)c(CO)c1 (configuration not stated) [ALBUTEROL]	28	1	–	1.1 ×10⁻⁸ M	–	–	–	–	0.7	–	–	–
CC(C)(C)NCC(O)c1ccc(O)c(C(O)CO)c1 (configuration not stated)	303	1	3 ×10⁻⁵ M	9.9 ×10⁻⁸ M	–	–	–	–	0.3	–	–	–
CC(C)(C)NCC(O)c1ccc(O)c(O)c1 (configuration not stated) [COLTEROL]	5.5	1	0.0071 µM	1.3 nM	–	–	–	–	1	–	–	–
